Reference: BigSolDB 2.1

N#Cc1ccc(C(c2ccc(C#N)cc2)n2cncn2)cc1
solubility (mole fraction)
Details | 283.15 K | 288.15 K | 293.15 K | 298.15 K | 303.15 K | 308.15 K | 313.15 K | 318.15 K | 323.15 K
in THF | 0.0164 | 0.0184 | 0.0206 | 0.0229 | 0.0254 | 0.0281 | 0.0309 | 0.034 | 0.0373
in acetone | 0.0147 | 0.0168 | 0.019 | 0.0214 | 0.0241 | 0.027 | 0.0301 | 0.0335 | 0.0371
in acetonitrile | 0.00638 | 0.0077 | 0.00923 | 0.011 | 0.0131 | 0.0154 | 0.018 | 0.021 | 0.0244
in ethanol | 0.000456 | 0.000586 | 0.000748 | 0.000946 | 0.00119 | 0.00148 | 0.00183 | 0.00225 | 0.00275
in ethyl acetate | 0.00527 | 0.00609 | 0.007 | 0.00802 | 0.00914 | 0.0104 | 0.0117 | 0.0132 | 0.0148
in methanol | 0.00108 | 0.00133 | 0.00163 | 0.00198 | 0.00239 | 0.00287 | 0.00342 | 0.00406 | 0.00479
in methyl acetate | 0.0105 | 0.0119 | 0.0135 | 0.0151 | 0.017 | 0.019 | 0.0211 | 0.0234 | 0.0259
in n-propanol | 0.000351 | 0.000461 | 0.0006 | 0.000773 | 0.000989 | 0.00125 | 0.00158 | 0.00197 | 0.00245
